“Also recorded” adds a separate entry of the source. Read-outs that look alike come from different tables or passages of the source.
Columns and labels:
[1] = tested on: LPS-elicited thermal hyperalgesia; test: LPS-elicited inflammatory pain model, hindpaw thermal withdrawal latency; type: in vivo, rat; conditions: for effect on the antihyperalgesic action of sEHI AEPU: topical, with LPS + AEPU (FIGS. 2A, 2B, 4); for effect on sEHI-elicited analgesia: with LPS + sEHI compound 950, two hours post LPS (FIG. 5); for effect on response to LPS administration: agent + LPS, no sEHI (FIG. 2D); for effect on baseline TWL response: agent by itself, no LPS (FIG. 2C)
Description: Inflammatory pain model: The nociception response was measured using the hind paw withdrawal latency test modified after Hargreaves at al., Pain, 32(1):77-88 (1988). Male Sprague-Dowley rats weighing 240-260 g, are individually housed at UC Davis Animal Resource Facility under standard conditions with free access to food and water, and maintained for at least 1 week before the experiments. On the day of the experiments, the animals' basal response is measured and then compounds are topically administered preceding an injection with 10 ug of endotoxin (1Lipopolysaccharide, “LPS”, Sigma-Aldrich, St. Louis, Mo.). Nociceptive response is then measured at 120 minutes post-LPS injection. Compounds are formulated by dissolving them in ethanol and mixing with cream in a ratio of 1:8. Eight animals per group are used. A dose response curve is obtained by administering increasing concentrations of EETs and measuring nociceptive response.
Behavioral nociceptive testing was conducted by assessing thermal hindpaw withdrawal latencies (“TWL”) using a commercial Hargreaves (Hargreaves et al., A new and sensitive method for measuring thermal nociception in cutaneous hyperalgesia. Pain 32:77-88 (1988)) apparatus (IITC Life Science Inc., Woodland Hills, Calif.). Male Sprague-Dawley rats weighing 240-250 g, were individually housed at the UC Davis Animal Resource Facility under standard conditions with free access to food and water, and maintained for at least 1 week before the experiments. On the day of the experiment, the rats were transferred to a quiet room, acclimated for 1 h, and their baseline responses measured. In pilot experiments, the intensity of the thermal stimulus was set to produce a baseline TWL of 7-8 s. Following baseline measurements, rats were first treated with 200 μl of vehicle or compound-formulated cream by topical application to one hind paw. Compounds (including sEHI, steroid synthesis inhibitors, steroid receptor antagonists, and cannabinoid receptor antagonists, as shown in the Figure legends) were formulated by dissolving them in ethanol and mixing with Vanicream® (Pharmaceutical Specialties, Inc., Rochester, Minn.) in a ratio of 1:9. The cream was thoroughly massaged across the entire hind paw surface over a 2 min period. After 1.5 hours rats were treated with 200 μl of sEHI formulated cream. Within 10 min of sEHI application, lipopolysaccharide (“LPS”, 10 μg in 50 μl 0.9% NaCl) was injected subcutaneously into the plantar surface of the treated paw. Immediately following LPS injection, animals were placed in acrylic chambers on a glass platform maintained at a temperature of 30±1° C. for TWL-measurement. During TWL measurement, a beam of radiant heat was focused onto the mid-portion of the plantar surface of the treated hind paw until the rat moved its stimulated hindpaw abruptly away from the heat stimulus. The duration of heat application necessary to elicit a withdrawal was designated as TWL. A maximum stimulus duration of 22 s was imposed to prevent tissue damage. Five TWL measurements were taken at 3-4 min interstimulus intervals for each of the time points following treatment. The three median TWLs were averaged for each animal at each time point.

[2] = tested on: CAR induced local thermal hyperalgesia; test: carrageenan-induced thermal hyperalgesia model; type: in vivo; conditions: topical, 20 hours post 2% carrageenan
Description: Using a second distinct inflammatory model, hyperalgesia was induced by intraplantar injection of 2% carrageenan (CAR) and sEH inhibitors were again delivered topically 20 hours post CAR injection.

CB2 over CB1 = conditions: cited from earlier work
Cannabinoid CB2 = target: T1, Cannabinoid CB2 (Homo sapiens, UniProt P34972); test: radio-ligand binding competition, CB2 ([3H]WIN 55212-2); conditions: for % Inhibition of Control Specific Binding: individual EET isomers, 3 μM
T1 construct: host or cells: CHO cells
T1 sequence (P34972 whole entry): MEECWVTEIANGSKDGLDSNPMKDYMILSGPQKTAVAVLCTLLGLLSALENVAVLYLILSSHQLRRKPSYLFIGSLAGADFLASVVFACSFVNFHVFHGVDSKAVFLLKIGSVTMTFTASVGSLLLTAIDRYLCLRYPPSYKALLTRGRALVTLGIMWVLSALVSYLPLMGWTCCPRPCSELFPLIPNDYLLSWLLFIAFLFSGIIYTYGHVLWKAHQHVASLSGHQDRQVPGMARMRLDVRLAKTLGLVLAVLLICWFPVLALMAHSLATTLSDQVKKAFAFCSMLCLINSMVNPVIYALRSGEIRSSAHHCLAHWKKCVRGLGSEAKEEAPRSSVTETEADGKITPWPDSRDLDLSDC

Dopamine D3 = Dopamine D3 (Homo sapiens, UniProt P35462); test: radio-ligand binding competition, D3; conditions: for % Inhibition of Control Specific Binding: second round, individual EET isomers, 3 μM; for IC50: displacement of high affinity ligand
Chain of Dopamine D3 (P35462 whole entry): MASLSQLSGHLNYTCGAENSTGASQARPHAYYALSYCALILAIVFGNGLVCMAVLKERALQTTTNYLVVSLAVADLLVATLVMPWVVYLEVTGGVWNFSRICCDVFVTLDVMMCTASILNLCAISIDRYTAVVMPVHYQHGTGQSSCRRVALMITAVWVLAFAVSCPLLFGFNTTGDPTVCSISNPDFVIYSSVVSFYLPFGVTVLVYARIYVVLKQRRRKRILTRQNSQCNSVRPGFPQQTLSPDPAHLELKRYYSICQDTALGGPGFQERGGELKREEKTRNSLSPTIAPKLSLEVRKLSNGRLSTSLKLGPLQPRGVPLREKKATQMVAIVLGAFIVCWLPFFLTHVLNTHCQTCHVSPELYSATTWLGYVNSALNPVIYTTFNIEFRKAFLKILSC

Neurokinin NK2 = target: T2, Neurokinin NK2 (Homo sapiens, UniProt P21452); test: radio-ligand binding competition, NK2; conditions: for % Inhibition of Control Specific Binding: second round, individual EET isomers, 3 μM; for IC50: displacement of high affinity ligand
T2 sequence (P21452 1-398): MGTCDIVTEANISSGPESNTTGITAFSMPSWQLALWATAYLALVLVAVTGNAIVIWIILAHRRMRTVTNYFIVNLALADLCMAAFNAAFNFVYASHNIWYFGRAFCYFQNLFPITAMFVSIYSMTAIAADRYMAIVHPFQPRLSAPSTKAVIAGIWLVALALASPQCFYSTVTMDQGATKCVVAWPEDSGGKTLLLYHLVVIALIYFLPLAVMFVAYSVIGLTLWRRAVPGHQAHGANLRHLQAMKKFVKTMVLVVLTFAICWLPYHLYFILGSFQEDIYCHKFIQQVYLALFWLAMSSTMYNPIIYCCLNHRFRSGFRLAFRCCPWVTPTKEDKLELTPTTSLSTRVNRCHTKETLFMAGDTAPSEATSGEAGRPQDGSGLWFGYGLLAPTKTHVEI

BZD (peripheral) = target: T3, BZD (peripheral) (Rattus norvegicus, UniProt P16257); test: radio-ligand binding competition, peripheral benzodiazepine receptor ([3H]PK 11195); conditions: for inhibition of binding of [3H]PK 11195 (FIG. 1): increasing concentrations; for % Inhibition of Control Specific Binding: second round, individual EET isomers, 3 μM; for IC50: displacement of [3H]PK 11195
T3 construct: containing 0.2 mg of cardiac membrane protein and the radioactive ligand; tissue CEREP (contract assay); host or cells: rat heart ventricular membranes

[3] = metabolomic analysis of oxylipids and prostaglandins in LPS-treated animals; type: in vivo
Source text: (In FIG. 3A, the bar presenting the results for the metabolite 6-keto-PGF1a for one group of animals exceeded the scale, as shown by a break in the bar and the statement of the result in ng/mL about the bar). FIG. 3A. […] FIG. 3C. […] All three graphs: bars with lines rising from left to right (e.g., in FIG. 3A, the “sum of DHETs”) present results for untreated (naïve) animals, bars with lines falling from left to right present results for animals treated with LPS, bars with cross-hatching present results for the animals treated with LPS and the sEH inhibitor AEPU, and bars with horizontal lines present the results for animals treated with LPS, AEPU, and the steroid synthesis inhibitor aminogluthetimide (“AGL”). The metabolites chosen for study show the effect on different pathways by which arachidonic acid is metabolized. ΣEpOMEs and ΣDiHOMEs are indicators of the P450 pathway, HETEs are an indicator of how much arachidonic acid is going through the 5-lipoxygenase pathway and 6-keto-PGF1a, and PGE2 are indicators of the arachidonic acid metabolized by the cyclooxygenase pathway. 6-keto-PGF1a and TXB2 are stable metabolites of PGI2 and thromboxane A2 which have been implicated in increased risk for stroke and heart attack. HODEs are lipoxygenase-derived fatty acid metabolites.
See, FIG. 3. This means that inhibition of sEH is not only effective against inflammatory pain but also effective in other types of pain that are not necessarily modulated by prostanoid levels. Indeed, non-inflammatory types of pain are known to be not well addressed by COX inhibitors. The levels of EETs and DHETs, however, correlated well with the nociceptive end result.

[4] = displacement of high affinity ligand, read-out: IC50, CB2
[5] = AGL+AEPU vs AEPU-administered animals

CCCCOC(=O)CCCCCCCCCCCNC(=O)NC12CC3CC(CC(C3)C1)C2 [AUDA-be, 12-(3-Adamantan-1-yl-ureido)dodecanoic acid butyl ester]
attenuation of LPS-elicited thermal hyperalgesia ([1]; topical administration): prophylactic effect
effect on CAR induced thermal hyperalgesia [2]: blocked CAR induced local thermal hyperalgesia effectively; also recorded: effective therapeutically in reversing thermal hyperalgesia

CN1CCCCC1Cn1cc(C(=O)c2cc([N+](=O)[O-])ccc2I)c2ccccc21 (stereo not shown) [AM1241]
selectivity for CB2 over CB1 (CB2 over CB1): 340 fold

Cc1c(C(=O)c2cccc3ccccc23)c2cccc3c2n1C(CN1CCOCC1)CC3=O (stereo not shown) [WIN55212-2, 4,5-dihydro-2-methyl-4(4-morpholinylmethyl)-1-(1-naphthalenylcarbonyl)-6H-pyrrolo[3,2,1ij]quinolin-6-one, reference compound]
IC50 (Cannabinoid CB2; reference compound, first round, read-out: IC50 Ref (affinity of reference compound)): 0.0076 µM
IC50 (Cannabinoid CB2; reference compound, second round, read-out: IC50 Ref): 0.0027 µM

CCCCC/C=C\C[C@H]1O[C@H]1C/C=C\C/C=C\CCCC(=O)O [11,12-EET]
% Inhibition of Control Specific Binding (Dopamine D3): 6%
% Inhibition of Control Specific Binding (Neurokinin NK2): 1%
% Inhibition of Control Specific Binding (Cannabinoid CB2; second round): 3%
inhibition of binding of [3H]PK 11195 (FIG. 1) (BZD (peripheral)): completely inhibit
% Inhibition of Control Specific Binding (BZD (peripheral)): 28%

CC#C[C@]1(O)CC[C@H]2[C@@H]3CCC4=CC(=O)CCC4=C3[C@@H](c3ccc(N(C)C)cc3)C[C@@]21C [mifepristone]
effect on the antihyperalgesic action of sEHI AEPU [1]: did not have any impact

CCCCC/C=C\C/C=C\C/C=C\CC1OC1CCCC(=O)OC (stereo not shown) [5,6 EET-me]
IC50 (Dopamine D3): > 100 µM
IC50 (Neurokinin NK2): 36 µM
IC50 (Cannabinoid CB2; [4]): 20 µM
IC50 (BZD (peripheral)): 12 µM

CC1(C)NC(=O)N(c2ccc([N+](=O)[O-])c(C(F)(F)F)c2)C1=O [nilutamide]
effect on the antihyperalgesic action of sEHI AEPU [1]: did not have any impact

Cc1c(C(=O)NN2CCCCC2)nn(-c2ccc(Cl)cc2Cl)c1-c1ccc(I)cc1 [AM251, N-(piperidin-1-yl)-5-(4-iodophenyl)-1-(2,4-dichlorophenyl)-4-methy 1-1H-pyrazole-3-carboxamide]
effect on sEHI-elicited analgesia [1]: did not block

CCCCCC1OC1C/C=C\C/C=C\C/C=C\CCCC(=O)O (stereo not shown) [14,15-EET]
% Inhibition of Control Specific Binding (Dopamine D3): 10%
% Inhibition of Control Specific Binding (Neurokinin NK2): 8%
% Inhibition of Control Specific Binding (Cannabinoid CB2; second round): 5%
inhibition of binding of [3H]PK 11195 (FIG. 1) (BZD (peripheral)): completely inhibit
% Inhibition of Control Specific Binding (BZD (peripheral)): 45%

CCCCCC1OC1C/C=C\C/C=C\C/C=C\CCCC(=O)OC (stereo not shown) [14,15 EET-me]
IC50 (Dopamine D3): > 100 µM
IC50 (Neurokinin NK2): > 100 µM
IC50 (Cannabinoid CB2; [4]): > 100 µM
IC50 (BZD (peripheral)): 12 µM

CC(=O)S[C@@H]1CC2=CC(=O)CC[C@]2(C)[C@H]2CC[C@@]3(C)[C@@H](CC[C@@]34CCC(=O)O4)[C@H]12 [spironoloactone]
effect on the antihyperalgesic action of sEHI AEPU [1]: did not have any impact

CC/C(=C(\c1ccccc1)c1ccc(OCCN(C)C)cc1)c1ccccc1 [tamoxifen]
effect on the antihyperalgesic action of sEHI AEPU [1]: did not have any impact

CCC1(c2ccc(N)cc2)CCC(=O)NC1=O (stereo not shown) [AGL]
levels of DHETs [3, 5]: increased
levels of EETs [3, 5]: significantly reduced
PGE2 levels ([3]; AGL+LPS+AEPU vs AEPU+LPS or LPS only (FIG. 3)): significantly lower
effect on response to LPS administration [1]: do not they modify
effect on baseline TWL response [1]: no impact
effect on the antihyperalgesic action of sEHI AEPU [1]: completely blocked; also recorded: clearly hyperalgesic

CCCCC/C=C\C/C=C\C/C=C\CC1OC1CCCC(=O)O (stereo not shown) [5,6-EET]
% Inhibition of Control Specific Binding (Dopamine D3): 18%
% Inhibition of Control Specific Binding (Neurokinin NK2): 25%
% Inhibition of Control Specific Binding (Cannabinoid CB2; second round): 25%
inhibition of binding of [3H]PK 11195 (FIG. 1) (BZD (peripheral)): completely inhibit
% Inhibition of Control Specific Binding (BZD (peripheral)): 27%

CCCCC/C=C\C/C=C\CC1OC1C/C=C\CCCC(=O)OC (stereo not shown) [8,9 EET-me]
IC50 (Dopamine D3): > 100 µM
IC50 (Neurokinin NK2): > 100 µM
IC50 (Cannabinoid CB2; [4]): > 100 µM
IC50 (BZD (peripheral)): > 100 µM

CCCCC/C=C\CC1OC1C/C=C\C/C=C\CCCC(=O)OC (stereo not shown) [11,12 EET-me]
IC50 (Dopamine D3): > 100 µM
IC50 (Neurokinin NK2): > 100 µM
IC50 (Cannabinoid CB2; [4]): > 100 µM
IC50 (BZD (peripheral)): 140 µM

CC(C)(C)NC(=O)[C@H]1CC[C@H]2[C@@H]3CC[C@H]4NC(=O)C=C[C@]4(C)[C@H]3CC[C@]12C [Finasteride]
effect on response to LPS administration [1]: do not they modify
effect on baseline TWL response [1]: no impact
effect on the antihyperalgesic action of sEHI AEPU [1]: blocked

CCCCC/C=C\C/C=C\CC1OC1C/C=C\CCCC(=O)O (stereo not shown) [8,9-EET]
% Inhibition of Control Specific Binding (Dopamine D3): 9%
% Inhibition of Control Specific Binding (Neurokinin NK2): 10%
% Inhibition of Control Specific Binding (Cannabinoid CB2; second round): −2%
% Inhibition of Control Specific Binding (BZD (peripheral)): 11%

COc1ccc(C(=O)c2c(C)n(CCN3CCOCC3)c3cc(I)ccc23)cc1 [AM630, iodopravadoline]
effect on sEHI-elicited analgesia [1]: completely blocked

— patent US8263651B2, “Use of cis-epoxyeicosatrienoic acids and inhibitors of soluble epoxide hydrolase to treat conditions mediated by PBR, CB2, and NK2 receptors” (The Regents of the University of California, priority 2006, dated 2012)
